What was measured:
Pan02 = Pan02 pancreatic flank tumor growth in immunocompetent mice; type: in vivo, mouse; details: SRA737 100 mg/kg 5-days-on/2-days-off p.o., anti-PD1 BIW 10 mg/kg i.p.
Method: Tumors were evaluated twice weekly for the duration of the study. Tumor volumes were measured on all mice three times per week and calculated (width^2×length×0.4) using manual calipers. Once the average tumor size was in the range of 120-150 mm^3, mice were randomized into dosing groups using stratified sampling by assigning three animals per group for short-term reverse-phase protein array analysis and long-term treatment. Dosing schedules and duration varied depending on the study. Mice were weighed three times per week for the duration of the study, and a decrease in body weight >15% was considered indicative of a toxic dose. The Student t-test was used to determine statistical significance between compound- and vehicle-treated groups.
Tumors cells were implanted into the flank of immunocompetent mice. Once the volumes of the tumor reached 150-200 mm^3, the mice were randomized and treated with either monotherapy of SRA737 at 100 mg/kg for 5-days-on/2-days-off p.o., anti-PD1 BIW at 10 mg/kg i.p. or the combination thereof.

5637 = assay: Cell viability, bladder cancer line 5637; type: cell-based
Chk1 = biological target: T1, Chk1 (Homo sapiens, UniProt O14757); details: previously found; Walton et al.; cited from earlier work
T1 construct: endogenous in cells

[1] = tested on: cryopreserved hepatocytes; assay: Rank order of stability in cryopreserved hepatocytes across species; type: in vitro ADME, human, mouse, rat, dog, minipig and monkey; details: 10 μM, up to 4 hours
Method: (§1) The formation of SRA737-related metabolites was determined in cryopreserved hepatocytes from human, mouse, rat, dog, minipig and monkey samples after incubation with SRA737 at a nominal concentration of 10 μM for up to 4 hours. […] In the human hepatocyte preparation, approximately 67% of the parent remained after 4 hours of incubation compared to 75% and 7% in the rat and minipig preparations, respectively. Eight human SRA737 metabolites were observed. All SRA737 metabolites formed by human hepatocytes were also formed by monkey hepatocytes. Six metabolites were present at equal or greater abundance in the monkey.

human hepatocytes = assay: Stability and metabolites in cryopreserved hepatocytes, human; type: in vitro ADME; details: 10 μM, up to 4 hours
Method: as §1

[2] = tested on: NSCLC cancer lines (A549, Calu1, Calu6, H1299, H1573, H1944, H1993); assay: Cell viability, NSCLC cancer lines; type: cell-based; details: read-out: IC50 range
[3] = Excretion of SRA737 in mice; type: in vivo, mouse; details: 24-hour collection
Method: The excretion of SRA737 has been studied in mice and rats administered SRA737 at either 5 mg/kg IV or 10 mg/kg orally. Urine and feces were collected for a 24-hour period after dosing. In mice, renal excretion of intact SRA737 was consistently low (less than 10% of dose) after both oral and IV administration. Following IV administration of SRA737, less than 8% of the dose was recovered as intact drug in the feces while after oral administration this figure was less than 3%. Excretion of intact SRA737 was lower in the rat than in the mouse with <1% of dose excreted renally over 24 hours and less than 1.5% of dose excreted into the feces over 24 hours.

[4] = biological target: T2, Chk1 S296 autophosphorylation (Homo sapiens, UniProt O14757); assay: Gemcitabine-induced Chk1 S296 autophosphorylation in HT29 tumor xenografts (western blotting); type: in vivo, mouse; details: mice bearing HT29 xenografts; oral, 24 hours after gemcitabine 100 mg/kg IV
T2 construct: mice bearing HT29 tumor xenografts were administered; endogenous in cells; host or cells: HT29 human colon cancer xenografts in mice
Method: The effect of SRA737 on Gemcitabine induced Chk1 S296 autophosphorylation was assessed as described in Walton et al. (Oncotarget. 2016 Jan. 19; 7(3): 2329-2342), herein incorporated by reference for all it teaches. Briefly, mice bearing HT29 tumor xenografts were administered (i) vehicle control or (ii) gemcitabine (100 mg/kg in saline, IV) or (iii) a combination of SRA737 (12.5, 25, 50 or 100 mg/kg in DTPW, oral) and gemcitabine (100 mg/kg) with SRA737 administered 24 hours following gemcitabine administration (n=3 per time point per treatment). […] Exposure in the tumor was greater than 10-fold higher than in plasma. The circulating plasma concentration at this 24-hour timepoint corresponded to a free drug concentration of approximately 6 nM (2 ng/mL) based on plasma protein binding in mice of 94%.

[5] = tested on: HGSOC PDX, OVCAR3, Ep-Myc, MOLM-13, TH-MYC, MDA-MB-231, Renca, LL/2 models; assay: In vivo efficacy of SRA737 as a single agent; parameters: species or system mouse
Method: A program of in vivo efficacy studies was performed to assess the activity of SRA737 in combination with genotoxic chemotherapy and targeted agents, and as monotherapy.
One of these models also carried a MYCN amplification. A fourth HGSOC PDX model with partial resistance to PARPi was also sensitive to high dose SRA737 monotherapy.

STING pathway = assay: Immunoblot of STING pathway proteins in resected RPP tumors; type: in vivo, mouse; details: RPP tumors resected at Day 21
Method: Western blot analysis was performed using SDS-PAGE followed by transfer to nitrocellulose membrane using the BioRad Gel system. Membranes were incubated in the following primary antibodies (1:1000) overnight: PD-L1 (CST), total and phospho- (S366) STING (CST), total and phospho- (S396) IRF3 (CST), phospho-YH2AX (CST) and Actin (Sigma). Secondary anti-rabbit, HRP-linked antibodies were purchased from Cell Signaling Biosciences and detected using the Chemidoc imaging system mage-captured with Image Studio Version 3.1 software.

T1 sequence (O14757 whole entry, species assumed): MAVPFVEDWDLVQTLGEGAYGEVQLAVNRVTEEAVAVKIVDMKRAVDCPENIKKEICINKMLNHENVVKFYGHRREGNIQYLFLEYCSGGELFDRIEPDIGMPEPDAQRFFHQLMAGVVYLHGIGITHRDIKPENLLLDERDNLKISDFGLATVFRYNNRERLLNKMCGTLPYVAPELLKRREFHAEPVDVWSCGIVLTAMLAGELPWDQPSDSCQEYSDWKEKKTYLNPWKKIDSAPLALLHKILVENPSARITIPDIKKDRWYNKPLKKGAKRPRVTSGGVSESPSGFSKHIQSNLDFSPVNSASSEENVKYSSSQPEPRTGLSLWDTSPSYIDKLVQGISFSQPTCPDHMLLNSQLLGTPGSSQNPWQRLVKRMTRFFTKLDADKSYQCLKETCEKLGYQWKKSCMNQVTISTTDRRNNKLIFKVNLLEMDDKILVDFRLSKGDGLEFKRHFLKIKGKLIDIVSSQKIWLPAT
T2 sequence (O14757 whole entry): as the sequence (O14757 whole entry, species assumed) above

N#Cc1cnc(Nc2cc(NCC3CNCCO3)c(C(F)(F)F)cn2)cn1 (stereo not drawn) [SRA737, 5-[[4-[[morpholin-2-yl]methylamino]-5-(trifluoromethyl)-2-pyridyl]amino]pyrazine-2-carbonitrile]
TGI (Pan02): 59%
IC50 5637: 2100 nM
off-target activity against other kinases (Chk1): limited off-target activity against other kinases
rank order of stability from most stable to least stable [1]: rat≈mouse >monkey≈human >>dog >>minipig
human SRA737 metabolites observed (human hepatocytes): Eight
IC50 [2]: ≥ 800 nM
dose recovered as intact drug in the feces ([3]; IV administration): less than 8 % of dose
dose recovered as intact drug in the feces ([3]; oral administration): less than 3 % of dose
SRA737 doses at which inhibition of pS296 Chk1 was observed [4]: greater than or equal to 12.5 mg/kg
sensitivity to high dose monotherapy ([5]; fourth HGSOC PDX model with partial resistance to PARPi): sensitive
antitumor activity as a single agent ([5]; several HGSOC PDX models with CCNE1 amplifications and TP53 mutations, data not shown): Significant antitumor activity
STING pathway incl. pSTING_S366, pTBK1_S172, cGAS, pIRF3_S396 in tumors (STING pathway): significant activation of the STING pathway

Source: patent US20220184091A1, “Methods of Treating Cancer with Chk1 Inhibitors” (Sierra Oncology, Inc., priority 2019, published 2022)
